Several values for one entry are separate records, joined by “and”; a condition that tells them apart may be missing. Equal values may be shown once. Inconclusive results and toxic doses are left out. Rule for the calls: active = survival T/C of 150% or more; inactive = T/C below 125% in these data.
Test system: CD2F1 mice, L1210 leukemia ip, survival T/C
Test: NCI In Vivo Anticancer Drug Screen. Data for tumor model L1210 Leukemia (intraperitoneal) in CD2F1 (CDF1) mice
Conditions: higher = longer survival
Method in brief: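 Read-out first: treated-group measurement over vehicle-control measurement, expressed as a ratio. Animals bore a transplanted tumor line and were dosed with compound or vehicle.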

[1] = endpoint: mean survival time, dose: 50.0 mg/kg/injection, schedule: Q01DX009 (ip), vehicle: saline with Tween-80
[2] = endpoint: mean survival time, dose: 100.0 mg/kg/injection, schedule: Q01DX001 (ip), vehicle: saline with Tween-80
[3] = endpoint: mean survival time, dose: 100.0 mg/kg/injection, schedule: Q04DX002 (ip), vehicle: saline with Tween-80
[4] = endpoint: mean survival time, dose: 200.0 mg/kg/injection, schedule: Q01DX001 (ip), vehicle: saline with Tween-80
[5] = endpoint: mean survival time, dose: 200.0 mg/kg/injection, schedule: Q04DX002 (ip), vehicle: saline with Tween-80
[6] = endpoint: mean survival time, dose: 400.0 mg/kg/injection, schedule: Q01DX001 (ip), vehicle: saline with Tween-80
[7] = endpoint: mean survival time, dose: 400.0 mg/kg/injection, schedule: Q04DX002 (ip), vehicle: saline with Tween-80
[8] = endpoint: mean survival time, dose: 100.0 mg/kg/injection, schedule: Q01DX009 (ip), vehicle: saline with Tween-80
[9] = endpoint: mean survival time, dose: 200.0 mg/kg/injection, schedule: Q01DX009 (ip), vehicle: saline with Tween-80
[10] = endpoint: mean survival time, dose: 400.0 mg/kg/injection, schedule: Q01DX009 (ip), vehicle: saline with Tween-80

Measured: T/C

Nc1ccc(S(=O)(=O)O)cc1[N+](=O)[O-]
inactive: endpoint: mean survival time, dose: 100.0 mg/kg/injection, schedule: Q01DX009 (ip), vehicle: saline 92 % of control | endpoint: mean survival time, dose: 200.0 mg/kg/injection, schedule: Q01DX009 (ip), vehicle: saline 97 % of control | endpoint: mean survival time, dose: 400.0 mg/kg/injection, schedule: Q01DX009 (ip), vehicle: saline 101 % of control

Nc1nc(N)c(-c2ccc(Cl)c(Cl)c2)c(CP(Cl)(Cl)(Cl)Br)n1
active: [1] 160 % of control
inactive: endpoint: mean survival time, dose: 12.5 mg/kg/injection, schedule: Q01DX009 (ip), vehicle: Klucel (hydroxypropylcellulose) (HPC) 100 % of control | endpoint: mean survival time, dose: 25.0 mg/kg/injection, schedule: Q01DX009 (ip), vehicle: Klucel (hydroxypropylcellulose) (HPC) 94 % of control | endpoint: mean survival time, dose: 50.0 mg/kg/injection, schedule: Q01DX009 (ip), vehicle: Klucel (hydroxypropylcellulose) (HPC) 102 % of control | [2] 98 % of control | endpoint: mean survival time, dose: 100.0 mg/kg/injection, schedule: Q01DX009 (ip), vehicle: Klucel (hydroxypropylcellulose) (HPC) 88 % of control | [3] 94 % of control | endpoint: mean survival time, dose: 100.0 mg/kg/injection, schedule: Q04DX003 (ip), vehicle: saline with Tween-80 95 % of control | [4] 90 % of control | [5] 107 % of control | endpoint: mean survival time, dose: 200.0 mg/kg/injection, schedule: Q04DX003 (ip), vehicle: saline with Tween-80 100 % of control | [6] 105 % of control | [7] 100 % of control

[Cl][Pt+2][Cl].[NH-]C1CCCC1[NH-] (configuration not stated)
active: endpoint: median survival time, dose: 10.0 mg/kg/injection, schedule: Q04DX003 (ip), vehicle: Klucel (hydroxypropylcellulose) (HPC) 166 % of control and 173 % of control | endpoint: median survival time, dose: 20.0 mg/kg/injection, schedule: Q04DX003 (ip), vehicle: Klucel (hydroxypropylcellulose) (HPC) 196 % of control and 333 % of control

O=C(NCC1CCCCO1)Nc1ccc(Cl)cc1 (configuration not stated)
inactive: [3] 110 % of control | [5] 102 % of control | [7] 94 % of control

COC1OC2COC(C)(c3ccccc3)OC2C(O)C1[NH-].COC1OC2COC(C)(c3ccccc3)OC2C(O)C1[NH-].[Cl][Pt+2][Cl] (configuration not stated)
inactive: endpoint: mean survival time, dose: 12.5 mg/kg/injection, schedule: Q04DX003 (ip), vehicle: saline 93 % of control | endpoint: mean survival time, dose: 25.0 mg/kg/injection, schedule: Q04DX003 (ip), vehicle: saline 96 % of control | endpoint: mean survival time, dose: 50.0 mg/kg/injection, schedule: Q04DX003 (ip), vehicle: saline 96 % of control | endpoint: mean survival time, dose: 100.0 mg/kg/injection, schedule: Q04DX003 (ip), vehicle: saline 95 % of control | endpoint: mean survival time, dose: 200.0 mg/kg/injection, schedule: Q04DX003 (ip), vehicle: saline 102 % of control

O=C(O)c1cc(N=Nc2ccc3ccccc3c2)ccc1O
inactive: [8] 103 % of control | [9] 106 % of control | [10] 98 % of control

CCCCN(CCCC)C(=S)Nc1ccccc1
inactive: [1] 96 % of control | [2] 107 % of control | [8] 96 % of control | [4] 102 % of control | [9] 86 % of control | [6] 96 % of control

Oc1cc(O)cc(/C=C/c2ccc(O)c(O)c2)c1
inactive: endpoint: median survival time, dose: 6.25 mg/kg/injection, schedule: Q01DX009 (ip), vehicle: DMSO 103 % of control | endpoint: median survival time, dose: 12.5 mg/kg/injection, schedule: Q01DX009 (ip), vehicle: DMSO 109 % of control | endpoint: median survival time, dose: 25.0 mg/kg/injection, schedule: Q01DX009 (ip), vehicle: DMSO 108 % of control and 109 % of control | endpoint: median survival time, dose: 50.0 mg/kg/injection, schedule: Q01DX009 (ip), vehicle: DMSO 108 % of control and 109 % of control | endpoint: median survival time, dose: 100.0 mg/kg/injection, schedule: Q01DX009 (ip), vehicle: DMSO 109 % of control

Cc1ccc2cc3c(ccc4ccccc43)c3c2c1CC3
inactive: [1] 93 % of control | [8] 110 % of control | [9] 97 % of control | [10] 100 % of control

COc1cc2c(cc1OC)C(NC=O)CCC2 (configuration not stated)
inactive: endpoint: mean survival time, dose: 12.5 mg/kg/injection, schedule: Q01DX009 (ip), vehicle: water 102 % of control | endpoint: mean survival time, dose: 25.0 mg/kg/injection, schedule: Q01DX009 (ip), vehicle: water 102 % of control | endpoint: mean survival time, dose: 50.0 mg/kg/injection, schedule: Q01DX009 (ip), vehicle: water 102 % of control | endpoint: mean survival time, dose: 100.0 mg/kg/injection, schedule: Q01DX009 (ip), vehicle: water 100 % of control | endpoint: mean survival time, dose: 200.0 mg/kg/injection, schedule: Q01DX009 (ip), vehicle: water 104 % of control

COC(=O)c1ccc[n+](CC(=O)c2ccccc2)c1
inactive: [1] 101 % of control | [8] 96 % of control | [9] 98 % of control
